Results taken from US8796292B2, “Selective antibacterials for clostridium difficile infections” (GLSynthesis Inc., priority 2009, dated 2014).
Like-named read-outs stand apart in the source and are kept apart here.

Assays:
Assay in all cases: agar dilution MIC assay of anaerobic bacteria
L. casei = type: cell-based, Lactobacillus casei; conditions: Lacticaseibacillus casei, Micromyx Number 1722, Table 1
Method: (§1) Each compound was assayed against a panel of anaerobic bacteria in culture, consisting of Gram-positive organisms, such as Lactobacilli, Bifidobacteria, Clostridium spp., and Gram-negative bacteria, such as […] fragilis spp., according to guidelines of the Clinical and Laboratory Standards Institute (CLSI document M11-A7, CLSI, Wayne, Pa., 2007). […] One tenth mL of diluted bacteria containing 500-1000 colony-forming units (CFU) was plated and spread, and the plates incubated at 37° C. for 24-48 hours. MIC (minimum inhibitory concentration) is equivalent to the lowest concentration in μg/ml at which growth, i.e., colony formation, is not observed. […] Bacteria were assayed using a reference agar dilution method. Drug dilutions and drug-supplemented agar plates were prepared manually. The test organisms were maintained frozen at −80° C. The isolates were sub-cultured on Supplemented Brucella Agar (SBA) plates in a Bactron II anaerobic chamber and incubated for 48 hours at 35-36° C. in the Bactron II anaerobe chamber. Following inoculation, the drug-supplemented plates were incubated at 35° C. for 48 hours in the anaerobic environment (5% hydrogen, 5% carbon dioxide, 90% nitrogen) of the Bactron II. The MIC in μg/ml was read per Clinical and Laboratory Standards Institute guidelines.

Ba. fragilis = type: cell-based; conditions: Bacteroides fragilis, Micromyx Number 0123 (ATCC strain)
Method: as §1

L. acidophilus = type: cell-based; conditions: Lactobacillus acidophilus, Micromyx Number 0681, Table 1
Method: as §1

Bi. brevi = type: cell-based, Bifidobacterium brevi; conditions: Bifidobacterium; Bi. brevi, Micromyx Number 3967, Table 1
Method: as §1

Bi. longum = type: cell-based, Bifidobacterium longum; conditions: Bifidobacterium longum; Bi. longum, Micromyx Number 3968, Table 1; read-out: MIC
Method: as §1

E. lentum = type: cell-based, Eubacterium lentum; conditions: Eggerthella lenta; E. lentum, Micromyx Number 1274, Table 1; read-out: MIC
Method: as §1

C. difficile = type: cell-based, Clostridium difficile; conditions: Clostridioides difficile, read-out: MIC
Method: as §1

[1] = Ba. fragilis, Gram negative, Table 1
[2] = C. difficile, Micromyx Number 1209, Table 1
[3] = C. difficile, Micromyx Number 3579, Table 1
[4] = C. difficile, Micromyx Number 3580, Table 1
[5] = C. difficile, Micromyx Number 3581, Table 1
[6] = C. difficile, Micromyx Number 3582, Table 1
[7] = C. difficile, Micromyx Number 3584, Table 1
[8] = C. difficile, Micromyx Number 3585, Table 1
[9] = C. difficile, Micromyx Number 3586, Table 1
[10] = C. difficile, Micromyx Number 3587, Table 1
[11] = C. difficile, Micromyx Number 3588, Table 1
[12] = C. difficile, Micromyx Number 3589, Table 1
[13] = C. difficile, Micromyx Number 3590, Table 1
[14] = C. difficile, Micromyx Number 3591, Table 1
[15] = C. difficile, Micromyx Number 3593, Table 1
[16] = C. difficile, Micromyx Number 3594, Table 1
[17] = C. difficile, Micromyx Number 3595, Table 1
[18] = C. difficile, Micromyx Number 4381 (ATCC strain), Table 1

Measured: MIC

CN[C@H](CC(C)C)C(=O)N[C@H]1C(=O)N[C@@H](CC(N)=O)C(=O)N[C@H]2C(=O)N[C@H]3C(=O)N[C@H](C(=O)N[C@H](C(=O)O)c4cc(O)cc(O)c4-c4cc3ccc4O)[C@H](O)c3ccc(c(Cl)c3)Oc3cc2cc(c3O[C@@H]2O[C@H](CO)[C@@H](O)[C@H](O)[C@H]2O[C@H]2C[C@](C)(N)[C@H](O)[C@H](C)O2)Oc2ccc(cc2Cl)[C@H]1O [vancomycin, reference compound]
1 µg/mL: C. difficile; C. diff. Strain no. 18285, Table 4 | C. difficile; C. diff. Strain no. 19265, Table 4 | C. difficile; C. diff. Strain no. 19273, Table 4 | C. difficile; C. diff. Strain no. 19281, Table 4 | C. difficile; C. diff. Strain no. 19291, Table 4 | C. difficile; C. diff. Strain no. 19369, Table 4 | C. difficile; C. diff. Strain no. 19540, Table 4 | C. difficile; C. diff. Strain no. 19680, Table 4 | C. difficile; C. diff. Strain no. 19687, Table 4 | C. difficile; C. diff. Strain no. 20152, Table 4 | C. difficile; C. diff. Strain no. 20680, Table 4 | C. difficile; C. diff., Micromyx Number 3579, Table 2 | C. difficile; C. diff., Micromyx Number 3580, Table 2 | C. difficile; [2] | C. difficile; [3] | C. difficile; [4] | C. difficile; [5] | C. difficile; [10] | C. difficile; [13] | C. difficile; [16] | C. difficile; [17] | C. difficile; [18]
0.25 µg/mL: C. difficile; [6]
0.5 µg/mL: Bi. longum | C. difficile; [7] | C. difficile; [8] | C. difficile; [9] | C. difficile; [12] | C. difficile; [15]
32 µg/mL: Ba. fragilis; B. fragilis, Table 2
8 µg/mL: C. difficile; C. diff. Strain no. 19683, Table 4
4 µg/mL: C. difficile; C. diff. Strain no. 19382, Table 4 | C. difficile; C. diff. Strain no. 19580, Table 4 | C. difficile; C. diff. Strain no. 20066, Table 4 | C. difficile; C. diff. Strain no. 20494, Table 4 | C. difficile; C. diff. Strain no. 20934, Table 4 | C. difficile; C. diff., Micromyx Number 3581, Table 2
2 µg/mL: L. acidophilus | Bi. brevi | E. lentum | C. difficile; C. diff. Strain no. 19681, Table 4 | C. difficile; C. diff. Strain no. 20307, Table 4 | C. difficile; C. diff. Strain no. 21099, Table 4 | C. difficile; C. diff., Micromyx Number 3582 (ATCC strain), Table 2 | C. difficile; [11] | C. difficile; [14]
> 16 µg/mL: L. casei | Ba. fragilis; [1]

CCC[C@@H]1C[C@@H](C(=O)N[C@@H]([C@H]2O[C@H](SC)[C@H](O)[C@@H](O)[C@H]2O)[C@H](C)Cl)N(C)C1 [clindamycin, reference compound]
1 µg/mL: Ba. fragilis; [1]
≤ 0.03 µg/mL: Bi. longum
16 µg/mL: C. difficile; [3]
4 µg/mL: L. acidophilus | C. difficile; [2] | C. difficile; [18]
8 µg/mL: C. difficile; [4] | C. difficile; [7] | C. difficile; [8] | C. difficile; [9] | C. difficile; [10] | C. difficile; [11] | C. difficile; [13] | C. difficile; [14] | C. difficile; [15]
0.12 µg/mL: Bi. brevi | E. lentum
2 µg/mL: L. casei
> 16 µg/mL: C. difficile; [5] | C. difficile; [12] | C. difficile; [16] | C. difficile; [17]
0.5 µg/mL: C. difficile; [6]
